As usually defined, the Kd is the free concentration of one partner at which half of the binding sites on the other are occupied at equilibrium, for simple one-to-one binding. One may read the Ki as the equilibrium dissociation constant of an inhibitor or competing ligand from its target.

The source of these data is PMC3722118, “Hellebrin and its aglycone form hellebrigenin display similar in vitro growth inhibitory effects in cancer cells and binding profiles to the alpha subunits of the Na^+/K^+-ATPase” (Molecular Cancer, 2013).

One experiment deals with A549 NSCLC cells. In words: MTT colorimetric in vitro growth inhibition assay. The experiment is classed as cell-based, human. The following applies: Homo sapiens, A549, 72 h, read-out: IC50 (nM) A549. From the text:
(§1) The histological types and origins of the eight human cancer cell lines that were used for the MTT colorimetric assay are detailed in the legend of Table 1. Two mouse cancer cell lines were also used, the CT26.WT colon cancer cell line (ATCC code CRL-2638) and the B16F10 melanoma cell line (ATCC code CRL-6475). Both cell lines were obtained from the American Type Culture Collection (ATCC, Manassas, VA). A control cell line (human NHDF fibroblasts) was obtained from PromoCell (code c-12300; Heidelberg, Germany). The cell lines detailed in Figure 2A are a generous gift from the National Cancer Institute (NCI, Bethesda, USA) to Steven Karlish’s lab.
(§2) The cancer cells were cultured in RPMI (Lonza, Verviers, Belgium) medium supplemented with 10% heat-inactivated fetal calf serum (Lonza). All culture media were supplemented with 4 mM glutamine, 100 μg/mL gentamicin, 200 U/mL penicillin and 200 μg/mL streptomycin (Lonza). The NHDF fibroblasts were cultured in Lonza medium cc3132 KT FGM-2 BulletKit.
(§3) The overall growth level of the human cancer cell lines was determined using a colorimetric MTT (3-(4,5-dimethylthiazol-2yl)-2,5-diphenyltetrazolium bromide, Sigma, Belgium) assay as detailed previously. Briefly, this test measures the number of metabolically active (thus living) cells that are able to transform the yellow MTT into the blue formazan dye via a mitochondrial reduction involving succinate dehydrogenase. The amount of formazan obtained at the end of the experiment (measured by spectrophotometry) is directly proportional to the number of living cells. The determination of the optical density in the control compared to the treated cells therefore enables quantitative measurements of the effects of compounds on the growth of normal as well as cancer cells in vitro.
(§4) Each experimental condition was performed in six replicates.

For experiment [1], the system named is HT-29 colon cancer cells. In words: MTT colorimetric in vitro growth inhibition assay. The experiment is classed as cell-based, human. The following applies: Homo sapiens, HT-29, 72 h, read-out: IC50 (nM) HT-29.
Excerpt: as §1, §2, §3, §4

The test system of a further experiment is Hs683 glioma cells. As to the kind of experiment: MTT colorimetric in vitro growth inhibition assay. To be noted: Homo sapiens, Hs 683, 72 h, read-out: IC50 (nM) Hs683. The format is cell-based, human.
Excerpt: as §1, §2, §3, §4

The subject of experiment [2] is MCF-7 breast cancer cells. In words: MTT colorimetric in vitro growth inhibition assay. The experiment is classed as cell-based, human. To be noted: Homo sapiens, MCF7, 72 h, read-out: IC50 (nM) MCF-7.
Excerpt: as §1, §2, §3, §4

Experiment [3] concerns PC-3 prostate cancer cells. In words: MTT colorimetric in vitro growth inhibition assay. The following applies: Homo sapiens, 72 h, read-out: IC50 (nM) PC-3. The format is cell-based, human.
Excerpt: as §1, §2, §3, §4

A further experiment has as its system SKMEL-28 melanoma cells. As to the kind of experiment: MTT colorimetric in vitro growth inhibition assay. To be noted: Homo sapiens, SK-MEL-28, 72 h, read-out: IC50 (nM) SKMEL-28. The experiment is classed as cell-based, human.
Excerpt: as §1, §2, §3, §4

The test system of another experiment is T98G glioma cells. As to the kind of experiment: MTT colorimetric in vitro growth inhibition assay. The following applies: Homo sapiens, T98G, 72 h, read-out: IC50 (nM) T98G. The format is cell-based, human.
Excerpt: as §1, §2, §3, §4

The test system of the next experiment is U373 glioma cells. In words: MTT colorimetric in vitro growth inhibition assay. The format is cell-based, human. To be noted: Homo sapiens, U373 MG, 72 h, read-out: IC50 (nM) U373.
Excerpt: as §1, §2, §3, §4

For experiment [4], the system named is human cancer cells (A549, U373, Hs683, T98G, MCF-7, SKMEL-28, PC-3, HT-29). As to the kind of experiment: MTT growth inhibition, mean over the eight human cancer cell lines. The format is cell-based. The following applies: 72 h, read-out: IC50 (nM) Mean ± SEM.
Excerpt: as §1, §2, §3, §4

A further experiment has as its system NHDF fibroblasts. In words: MTT growth inhibition in non-cancerous control cell line. The following applies: NHDF, normal human fibroblasts, read-out: in vitro growth inhibitory effects (IC50) in NHDF fibroblasts. The experiment is classed as cell-based.
Excerpt: as §1, §2, §3, §4

In the next experiment the test system is B16F10 melanoma cells. In words: MTT growth inhibition in mouse cancer cells. The format is cell-based. The following applies: B16-F10; mouse cancer cell line; read-out: IC50 growth inhibitory concentration in B16F10 melanoma cells.
Excerpt: as §1
(§5) The cancer cells were cultured in RPMI (Lonza, Verviers, Belgium) medium supplemented with 10% heat-inactivated fetal calf serum (Lonza). […]
(§6) The overall growth level of the human cancer cell lines was determined using a colorimetric MTT (3-(4,5-dimethylthiazol-2yl)-2,5-diphenyltetrazolium bromide, Sigma, Belgium) assay as detailed previously. […] The amount of formazan obtained at the end of the experiment (measured by spectrophotometry) is directly proportional to the number of living cells. The determination of the optical density in the control compared to the treated cells therefore enables quantitative measurements of the effects of compounds on the growth of normal as well as cancer cells in vitro. […]

A further experiment concerns CT26 colon cancer cells. As to the kind of experiment: MTT growth inhibition in mouse cancer cells. The experiment is classed as cell-based. The following applies: mouse cancer cell line, read-out: IC50 growth inhibitory concentration in CT26 colon cancer cells.
Excerpt: as §1, §5, §6

For a further experiment, the target named is T1, human α1β1 NaK complex (Homo sapiens, UniProt P05023).
T1 construct: made in house; host or cells: Pichia pastoris strain SMD1165 (membranes)
As to the kind of experiment: 3H-ouabain competitive displacement on P. pastoris membranes. The experiment is classed as binding. The following applies: 3H-ouabain displacement, three independent experiments; read-out: Affinity (nM) α-1 (KD ± SEM). As for the experimental part:
(§7) K0.5 was calculated using a one site inhibition model: B/BCG=0 = K0.5/([CG] + K0.5). […] Binding of each cardiac glycoside was estimated in 3 separate experiments.
(§8) Average KD or Ki values ± SEM for each isoform were calculated. Statistical significance was calculated by the unpaired Students t-test. P values <0.05 were considered significant.

Another experiment addresses T2, human α2β1 NaK complex (Homo sapiens, UniProt P50993).
T2 construct: made in house; host or cells: Pichia pastoris strain SMD1165 (membranes)
The experiment is described as above. The format is binding. As for the experimental part: as §7, §8

Another experiment concerns the target T3, human α3β1 NaK complex (Homo sapiens, UniProt P13637).
T3 construct: made in house; host or cells: Pichia pastoris strain SMD1165 (membranes)
The description is as above. The format is binding. The protocol:
as §7, §8

The test system of experiment [5] is HT-29 colon cancer cells. As to the kind of experiment: O2 consumption rate (MitoXpress assay). The format is cell-based, human. The following applies: compounds at their IC50 (MTT), 24 h. The protocol: For enzymatic determination of lactate production, confluent tumor cells were incubated with 10 mM glucose for 24 hours. Culture medium was then filtered through centrifugation columns with a 10 KDa cutoff, and L-lactate concentrations were determined on an ISCUSflex analyzer (CMA Microdialysis AB, Solna, Sweden). O2 consumption was determined using the MitoXpress assay according to the manufacturer’s instructions (LuxCell Biosciences, Cork, Ireland). Briefly, after adding the oxygen probe to tumor cells cultured for 24 hours in 96-well microplates with or without the tested compounds, the wells were sealed with mineral oil, and respiration was evaluated using time-resolved fluorescent plate readers. Under these conditions, O2 depletion was translated into an increase in probe phosphorescence signal, and the slope of this signal was used to derive the O2 consumption rate.
Figure 6 Metabolic profiling of human HT29 colon cancer cells treated with cardiotonic steroids. A: Extracellular lactate concentrations and B: O2 consumption rates in HT29 cancer cells treated with the indicated compounds at their IC50in vitro growth inhibitory concentrations (see Table 1). The data (mean ± SEM from triplicates) are expressed in mM lactate accumulated in the extracellular medium after 24 hours and arbitrary units derived from time-resolved fluorescent signal.min^-1.

The next experiment has as its target Rodent NaK. Also noted: method as in PMID 17706876. To be noted: read-out: Ki for inhibition of activity, rodent NaK; cited from earlier work.
The target of the next experiment is human NaK. More on the design: method as in PMID 17706876. The following applies: read-out: Ki for inhibition of activity, human NaK; cited from earlier work.
Where [6] appears, read: three days of culture, * three independent experiments, ** one experiment, six replicates.

Where two headings read alike, the source gives them in different places.

As for `C[C@@H]1O[C@@H](O[C@H]2CC[C@@]3(C)[C@H](CC[C@@H]4[C@@H]3[C@H](O)C[C@]3(C)[C@@H](c5ccc(=O)oc5)CC[C@]43O)C2)[C@H](O)[C@H](O)[C@H]1O` [Gamabufotalin-rhamnoside], the IC50 in the experiment on A549 NSCLC cells was 3 ± 1 nM; in the experiment on HT-29 colon cancer cells [1] it was 8 ± 1 nM; in the experiment with Hs683 glioma cells, 4 ± 1 nM; in [2], 17 ± 5 nM; in experiment [3], 6 ± 1 nM; in the experiment on SKMEL-28 melanoma cells it was 18 ± 7 nM. The IC50 in the experiment with T98G glioma cells was 7 ± 1 nM; with U373 glioma cells it was 6 ± 2 nM; in experiment [4] (Homo sapiens), 9 ± 2 nM; in the experiment on NHDF fibroblasts it was 1.84 µM; in the experiment on B16F10 melanoma cells, 0.7 µM; with CT26 colon cancer cells, 0.9 µM. Moreover, the Kd on human α1β1 NaK complex amounted to 30 ± 7 nM; on human α2β1 NaK complex (3H-ouabain displacement, three independent experiments, read-out: Affinity (nM) α-2 (KD ± SEM)), 36 ± 10 nM; on human α3β1 NaK complex (3H-ouabain displacement, three independent experiments, read-out: Affinity (nM) α-3 (KD ± SEM)), 17 ± 2 nM. In addition, the “Selectivity α-1 / α-2” value at human α2β1 NaK complex (ratio of KD α-1 to KD α-2) is listed as 0.8. At human α3β1 NaK complex (ratio of KD α-1 to KD α-3), the “Selectivity α-1 / α-3” value was 1.8. Besides, the “O2 consumption rate (cell respiration)” value in the experiment on HT-29 colon cancer cells [5] is on record as “significantly reduced”.
As for `C[C@@H]1O[C@@H](O[C@H]2C[C@@H](O)[C@]3(CO)[C@H]4[C@H](O)C[C@]5(C)[C@@H](C6=CC(=O)OC6)CC[C@]5(O)[C@@H]4CC[C@]3(O)C2)[C@H](O)[C@H](O)[C@H]1O` [Ouabain], the IC50 with A549 NSCLC cells (setting [6]) worked out at 37 ± 2 nM; in the experiment with HT-29 colon cancer cells [1] (setting [6]), 84 ± 8 nM; with Hs683 glioma cells (setting [6]), 34 ± 3 nM; in [2] (setting [6]), 100 ± 17 nM; in experiment [3] (setting [6]) it was 63 ± 10 nM; with SKMEL-28 melanoma cells (setting [6]), 83 ± 13 nM. The IC50 in the experiment on T98G glioma cells (setting [6]) was 80 ± 3 nM; in the experiment on U373 glioma cells (setting [6]), 78 ± 1 nM; in experiment [4] (mean over eight human cancer cell lines, three days of culture), 70 ± 8 nM. Moreover, in the experiment with HT-29 colon cancer cells [5], the “O2 consumption rate (cell respiration)” value is on record as “significantly reduced”. Besides, the Ki is 100 µM at Rodent NaK and 0.1 µM at human NaK.
